We go through one compound from patent US20240270800A1, “ANTIMICROBIAL CaNCR PEPTIDE VARIANTS” (Donald Danforth Plant Science Center, priority 2021, published 2024).

The test system of this test is Botrytis cinerea T-4. The test can be described thus: Determination of minimum inhibitory concentration, 96-well plate spore assay with resazurin viability. In kind it is cell-based. The settings on record: SFM supplemented with 100 mM NaCl. As to the method: The fungal strains of Botrytis cinerea T-4 were cultured on V8 growth medium. Fungal spores were harvested by flooding the fungal growth plates with sterile water. The spore suspension was filtered through two layers of Miracloth, centrifuged at 13,600 rpm for 1 min, washed, and re-suspended in low-salt Synthetic Fungal Medium (SFM) (U.S. Pat. No. 6,316,407). The spore suspension of each fungal pathogen was adjusted to equivalent spore density using a hemocytometer ([…]).
Anti-fungal activity of NCR13_WT and NCR13_V2 against B. cinerea was assessed using the 2-fold dilution series of each peptide. The antifungal activity was determined spectrophotometrically using the 96-well plate assay (Sagaram et al., 2011). The 45 μL of the peptide dilution ([…]) was added to each well of the microtiter plate containing 45 μL of (˜10^5 spores/ml) the spore suspension. The quantitative fungal growth inhibition was determined by measuring the absorbance at 595 nm using a (Tecan Infinite M200 ProTecan Systems Inc., San Jose, CA) microplate reader after 48 h. The fungal cell viability was determined using the resazurin cell viability assay (Chadha S & Kale SP, 2015; Li et al.; 2019). After incubation of the pathogen/peptide mixture for 48 h, 10 μl of 0.1% resazurin solution was added to each well and re-incubated overnight. […]
In general terms: Alamar Blue is a resazurin reagent that responds to reducing activity.

Structures are written as SMILES. Where a SMILES comes first, the peptide text is derived from it. Bridges are numbered along the chain shown (N, C = ends).

`CC[C@H](C)[C@@H]1NC(=O)[C@@H]2CSSC[C@H](NC(=O)[C@@H]3CCCN3C(=O)[C@H](CCCCN)NC(=O)[C@@H](N)[C@@H](C)O)C(=O)N[C@@H](CCC(N)=O)C(=O)N[C@@H](CO)C(=O)N[C@@H](CC(=O)O)C(=O)N[C@@H](CCCCN)C(=O)N[C@@H](CC(=O)O)C(=O)N[C@H]3CSSC[C@H](NC(=O)[C@H](Cc4ccccc4)NC(=O)CNC(=O)[C@H](CC(N)=O)NC1=O)C(=O)N[C@@H](CCCCN)C(=O)N[C@H](C(=O)N[C@H](C(=O)N[C@@H](CCCNC(=N)N)C(=O)O)C(C)C)CSSC[C@H](NC(=O)[C@H](C)NC(=O)[C@H](Cc1ccccc1)NC(=O)[C@H](CCCCN)NC(=O)[C@H](CCCCN)NC3=O)C(=O)N[C@@H](CCCNC(=N)N)C(=O)N[C@@H](CCCCN)C(=O)N1CCC[C@H]1C(=O)N[C@@H](CCCCN)C(=O)N[C@@H](C(C)C)C(=O)N1CCC[C@H]1C(=O)N[C@@H](CCCCN)C(=O)N2` [CaNCR13] (H-TKPCQSDKDCKKFACRKPKVPKCINGFCKCVR-OH; disulfide 4-23, 10-28, 15-30): the “MIC (SFM + 100 mM NaCl)” value was “No Activity”.
